The source made the active and inactive calls.
How the values were obtained:
[1] = test system: Streptococcus sp. 'group A'; test: Streptococcus pyogenes SK(-)GAS viability under kanamycin – luminescence, BacTiterGlo, confirmation, counter-screen for streptokinase expression inhibitor project, dose response (AID 1900); type: functional, organism-based
[2] = test system: Streptococcus; test: GAS UMAA2166 growth inhibition – luminescence, BacTiterGlo, counter-screen for streptokinase expression inhibitor project, dose response (AID 1915); type: functional, organism-based;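 also: potency for reduction of bacterial viability or growth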
[3] = target: T1, Streptokinase A (Streptococcus pyogenes serotype M1, UniProt P10520); test: viability-normalized secreted streptokinase activity reduction – plasminogen activation absorbance, OD405, dose response (AID 1914); type: functional, Streptococcus pyogenes M1 GAS;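 also: secreted streptokinase activity via plasminogen activation per viability signal from cell pellet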
T1 sequence (P10520 whole entry): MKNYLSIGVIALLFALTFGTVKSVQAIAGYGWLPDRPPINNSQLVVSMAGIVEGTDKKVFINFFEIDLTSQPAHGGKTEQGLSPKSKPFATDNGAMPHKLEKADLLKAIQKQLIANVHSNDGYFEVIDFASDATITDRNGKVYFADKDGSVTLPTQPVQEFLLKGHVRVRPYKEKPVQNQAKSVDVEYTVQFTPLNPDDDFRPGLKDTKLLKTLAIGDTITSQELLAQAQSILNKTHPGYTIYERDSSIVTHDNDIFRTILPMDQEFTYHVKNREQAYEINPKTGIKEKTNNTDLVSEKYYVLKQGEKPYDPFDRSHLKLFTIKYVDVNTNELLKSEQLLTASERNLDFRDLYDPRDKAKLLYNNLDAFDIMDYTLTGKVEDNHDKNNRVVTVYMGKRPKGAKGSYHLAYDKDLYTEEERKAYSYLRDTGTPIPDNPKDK

[4] = Trypanosoma cruzi growth suppression in host cells – NIH3T3 host cells, beta-gal luminescence, confirmation (AID 2044); type: functional, cell-based;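 also: intracellular parasites grown in NIH/3T3 mouse fibroblasts as host cells; luminescent beta-galactosidase reporter signal from transgenic T. cruzi replicating inside host cells; inhibitors lower the luminescence signal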
[5] = NIH3T3 cell viability loss – ATP luminescence, mouse fibroblasts, counter-screen, dose response (AID 2010); type: functional, cell-based;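 also: cells exposed to compound for about 90 hours before reading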
[6] = test system: INS1; test: INS-1E survival protection against cytokine death – cell-based, luminescence, retest, dose response (AID 449756); type: functional; conditions: Rattus norvegicus;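 also: cell death triggered by IL-1 beta plus TNF-alpha plus IFN-gamma mixture; protective hits raise ATP signal compared with cytokine alone wells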
[7] = Luminescence Cell-Based Dose Confirmation HTS to Identify Inhibitors of Platelet Dense Granule Release. [Related pubchem assays: 1663 (Primary HTS), 1678 (Summary of Project)]; type: functional
[8] = target: Luciferin 4-monooxygenase (Photinus pyralis, UniProt P08659); test: inhibition of purified Photinus pyralis luciferase – biochemical, luminescence, dose response (AID 1891)
Luciferin 4-monooxygenase, sequence (P08659 whole entry): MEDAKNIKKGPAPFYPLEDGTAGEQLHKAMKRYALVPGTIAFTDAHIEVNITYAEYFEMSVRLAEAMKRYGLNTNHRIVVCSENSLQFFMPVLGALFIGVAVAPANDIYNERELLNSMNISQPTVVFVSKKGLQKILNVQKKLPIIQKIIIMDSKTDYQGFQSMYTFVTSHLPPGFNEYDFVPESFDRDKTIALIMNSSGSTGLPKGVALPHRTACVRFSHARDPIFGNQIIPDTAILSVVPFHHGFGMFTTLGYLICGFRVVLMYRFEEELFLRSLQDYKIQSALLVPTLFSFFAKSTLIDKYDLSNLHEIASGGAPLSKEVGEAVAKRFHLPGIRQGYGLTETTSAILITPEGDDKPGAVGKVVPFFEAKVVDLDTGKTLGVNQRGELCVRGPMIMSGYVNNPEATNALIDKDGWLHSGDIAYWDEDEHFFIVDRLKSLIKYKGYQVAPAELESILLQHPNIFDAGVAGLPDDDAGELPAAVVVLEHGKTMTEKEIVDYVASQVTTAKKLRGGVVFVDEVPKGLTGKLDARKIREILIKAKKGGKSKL

[9] = target: T2, High affinity choline transporter 1 (Homo sapiens, UniProt Q9GZV3); test: human choline transporter blockers, potency – cell-based, 5-point CRC, membrane potential dye, dose response (AID 504840); type: functional
T2 sequence (Q9GZV3 whole entry): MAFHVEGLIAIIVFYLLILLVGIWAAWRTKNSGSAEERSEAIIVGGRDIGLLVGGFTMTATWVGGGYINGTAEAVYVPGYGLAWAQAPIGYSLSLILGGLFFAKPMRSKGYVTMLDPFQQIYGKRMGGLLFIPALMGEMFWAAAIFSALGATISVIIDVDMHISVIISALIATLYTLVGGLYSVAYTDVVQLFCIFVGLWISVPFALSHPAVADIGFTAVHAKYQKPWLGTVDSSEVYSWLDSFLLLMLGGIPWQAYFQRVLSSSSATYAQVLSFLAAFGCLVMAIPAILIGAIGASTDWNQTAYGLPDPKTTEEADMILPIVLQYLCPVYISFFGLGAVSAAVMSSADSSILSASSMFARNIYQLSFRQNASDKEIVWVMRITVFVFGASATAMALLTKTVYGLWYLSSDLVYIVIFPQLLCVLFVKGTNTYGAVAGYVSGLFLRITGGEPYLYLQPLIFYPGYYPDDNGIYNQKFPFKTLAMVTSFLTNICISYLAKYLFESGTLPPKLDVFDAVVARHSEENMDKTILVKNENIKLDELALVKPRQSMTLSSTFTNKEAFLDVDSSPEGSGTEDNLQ

[10] = Luminescence Cell-Based Dose Retest to Confirm Inhibitors of Cancer Stem Cells. [Related pubchem assays (depositor defined):AID2717, AID2721]; type: functional; conditions: Homo sapiens
[11] = target: T3, Cytochrome P450 1A2 (Homo sapiens, UniProt P05177);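 also: PubChem cytochrome P450 panel assay, CYP1A2 panel member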
T3 sequence (P05177 whole entry): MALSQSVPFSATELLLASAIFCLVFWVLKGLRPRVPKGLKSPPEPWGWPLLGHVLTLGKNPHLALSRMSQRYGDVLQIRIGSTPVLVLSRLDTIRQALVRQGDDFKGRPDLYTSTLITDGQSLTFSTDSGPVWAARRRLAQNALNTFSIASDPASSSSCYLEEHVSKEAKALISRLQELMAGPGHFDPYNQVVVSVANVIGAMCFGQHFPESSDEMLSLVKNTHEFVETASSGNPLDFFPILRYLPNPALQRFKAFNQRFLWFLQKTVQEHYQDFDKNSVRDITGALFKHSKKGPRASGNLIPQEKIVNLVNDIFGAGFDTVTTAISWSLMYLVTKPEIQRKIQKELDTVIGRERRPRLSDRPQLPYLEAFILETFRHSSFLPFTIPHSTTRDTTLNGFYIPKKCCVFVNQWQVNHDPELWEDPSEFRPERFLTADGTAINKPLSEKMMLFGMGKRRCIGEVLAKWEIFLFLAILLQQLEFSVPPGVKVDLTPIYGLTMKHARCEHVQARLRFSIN

[12] = target: Cytochrome P450 3A4 (Homo sapiens, UniProt P08684);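 also: CYP3A4 tested as one member of a cytochrome P450 panel screen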
Cytochrome P450 3A4, sequence (P08684 whole entry): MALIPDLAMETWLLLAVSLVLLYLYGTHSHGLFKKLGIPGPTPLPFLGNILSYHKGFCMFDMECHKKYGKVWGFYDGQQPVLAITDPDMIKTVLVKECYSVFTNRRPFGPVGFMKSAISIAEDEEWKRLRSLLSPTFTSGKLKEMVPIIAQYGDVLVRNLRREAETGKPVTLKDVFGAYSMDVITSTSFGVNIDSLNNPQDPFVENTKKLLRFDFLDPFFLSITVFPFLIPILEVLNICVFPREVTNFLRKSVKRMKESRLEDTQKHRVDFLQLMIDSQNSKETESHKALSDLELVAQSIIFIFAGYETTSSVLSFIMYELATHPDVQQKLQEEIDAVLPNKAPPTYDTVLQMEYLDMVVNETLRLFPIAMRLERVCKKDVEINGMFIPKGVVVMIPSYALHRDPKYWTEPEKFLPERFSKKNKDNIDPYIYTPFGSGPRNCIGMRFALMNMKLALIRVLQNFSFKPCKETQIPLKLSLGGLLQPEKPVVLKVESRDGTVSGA

[13] = target: Cytochrome P450 2C19 (Homo sapiens, UniProt P33261); test: Cytochrome panel assay with activity outcomes. Panel member name: p450-cyp2c19 Compounds with AC50 equal or less than 10 uM are considered active; type: functional; conditions: read-out: AC50
Cytochrome P450 2C19, sequence (P33261 whole entry): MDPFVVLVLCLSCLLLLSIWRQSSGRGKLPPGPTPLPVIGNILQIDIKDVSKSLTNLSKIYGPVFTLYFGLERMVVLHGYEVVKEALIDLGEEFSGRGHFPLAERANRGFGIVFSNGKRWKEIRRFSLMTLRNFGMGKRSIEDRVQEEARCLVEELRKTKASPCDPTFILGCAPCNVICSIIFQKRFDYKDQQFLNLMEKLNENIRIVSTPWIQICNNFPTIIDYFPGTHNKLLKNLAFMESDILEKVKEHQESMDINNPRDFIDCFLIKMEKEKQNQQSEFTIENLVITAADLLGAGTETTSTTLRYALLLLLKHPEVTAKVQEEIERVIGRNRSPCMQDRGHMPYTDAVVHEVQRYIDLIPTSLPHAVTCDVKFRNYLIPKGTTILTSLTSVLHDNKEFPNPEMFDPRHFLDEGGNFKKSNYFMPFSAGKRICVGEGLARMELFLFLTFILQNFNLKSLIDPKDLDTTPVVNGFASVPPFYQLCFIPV

[14] = target: Cytochrome P450 2D6 (Homo sapiens, UniProt P10635);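 also: CYP2D6 member of a cytochrome P450 panel assay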
Cytochrome P450 2D6, sequence (P10635 whole entry): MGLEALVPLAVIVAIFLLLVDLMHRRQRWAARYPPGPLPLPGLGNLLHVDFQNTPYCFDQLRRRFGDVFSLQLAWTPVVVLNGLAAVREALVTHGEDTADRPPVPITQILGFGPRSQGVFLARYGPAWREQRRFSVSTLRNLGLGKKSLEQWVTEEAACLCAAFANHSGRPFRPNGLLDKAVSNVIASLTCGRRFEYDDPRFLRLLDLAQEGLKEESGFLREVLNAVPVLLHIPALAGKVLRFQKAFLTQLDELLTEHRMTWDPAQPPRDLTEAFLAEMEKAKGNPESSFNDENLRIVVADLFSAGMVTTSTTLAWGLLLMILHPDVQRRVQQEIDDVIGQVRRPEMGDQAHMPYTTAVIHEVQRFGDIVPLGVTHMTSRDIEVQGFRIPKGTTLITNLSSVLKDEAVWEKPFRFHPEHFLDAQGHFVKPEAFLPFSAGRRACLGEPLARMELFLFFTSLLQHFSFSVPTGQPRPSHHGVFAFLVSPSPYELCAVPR

[15] = target: T4, Heat shock factor protein 1 (Mus musculus, UniProt P38532); test: enhancement of HSF1-driven luciferase signal – cell-based, NIH3T3, luminescence, dose retest, confirmation (AID 435004); type: functional;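 also: stress induced by proteasome inhibitor MG132 added 30 min after compound; luciferase reporter driven by HSF1 response element in NIH3T3 cells; actives raise luminescence as potentiators of the MG132 stress response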
T4 sequence (P38532 whole entry): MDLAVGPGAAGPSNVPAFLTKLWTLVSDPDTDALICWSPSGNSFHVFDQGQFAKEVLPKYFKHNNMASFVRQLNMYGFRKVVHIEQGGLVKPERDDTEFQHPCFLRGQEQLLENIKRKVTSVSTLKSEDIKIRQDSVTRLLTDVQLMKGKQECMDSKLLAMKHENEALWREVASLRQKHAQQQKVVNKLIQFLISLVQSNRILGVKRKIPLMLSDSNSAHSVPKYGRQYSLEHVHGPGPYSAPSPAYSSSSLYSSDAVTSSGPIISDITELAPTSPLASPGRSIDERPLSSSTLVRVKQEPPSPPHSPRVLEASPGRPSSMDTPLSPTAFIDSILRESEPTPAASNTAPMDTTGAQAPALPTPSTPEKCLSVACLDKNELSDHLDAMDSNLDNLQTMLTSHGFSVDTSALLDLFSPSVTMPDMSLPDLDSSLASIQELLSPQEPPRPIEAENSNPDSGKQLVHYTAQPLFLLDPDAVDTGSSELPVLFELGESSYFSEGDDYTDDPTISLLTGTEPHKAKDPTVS

[16] = viability of PTEN-deleted HCT116 cells – cell-based, HCT116 PTEN knockout, dose response (AID 1047); type: functional;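 also: HCT116 colon tumor cells with PTEN knocked out; cells exposed to compound for 60 hours before readout; potency for loss of cell viability measured by luminescence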
[17] = viability of HCT116 lacking mutant beta-catenin – cell-based, human colon tumor, dose response (AID 1045); type: functional;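 also: HCT116 colon tumor cells with beta catenin knocked out; cells exposed to compound for 60 hours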

Compound: CC1(C)CC(=O)C2=C(C1)N=C1c3ccccc3C(=O)C1C2c1ccc(Cl)cc1 (stereo not given)
- EC50 [1]: 6.07 µM (active)
- EC50 [2]: > 150 µM (not active)
- EC50 [3]: 14.8 µM (active)

Compound: C=CCn1cc(/C=C/c2cc[n+](C)cc2)c2ccccc21
- EC50 [4]: 0.323 µM (active)
- EC50 [5]: > 60 µM (not active)
- AC50 [6]: 4.75 µM (active)

Compound: CC(Oc1cccc(Cl)c1)C(=O)Nc1ccccc1N1CCCC1 (stereo not given)
- EC50 [7]: > 112 µM (not active)
- EC50 [8]: > 112 µM (not active)

Compound: Cc1noc(C)c1S(=O)(=O)N(CCc1ccccc1)Cc1ccccc1
- EC50 [1]: 68.6 µM (active)
- EC50 [2]: > 150 µM (not active)
- EC50 [3]: 21.7 µM (active)

Compound: COc1ccc(NC(=O)c2cccc(OC(F)F)c2)cc1Cl
- EC50 [7]: 18.2 µM (active)
- EC50 [8]: 17.3 µM (active)

Compound: CC(C)OCCCN1CN(S(=O)(=O)c2cccs2)c2nc3ccccc3nc21
- EC50 [7]: > 112 µM (not active)
- EC50 [8]: > 112 µM (not active)

Compound: CCCNc1nc2c(c(=O)n(C)c(=O)n2C)n1CCC(C)C
- IC50 [9]: 6.03 µM (active)

Compound: CCCCCCSc1ccc([C@H]2N[C@@](C)(C(=O)OC)[C@H]3C(=O)N(CC)C(=O)[C@@H]23)cc1
- AC50 [10]: 33.7 µM (active)

Compound: CCCc1cc2c(-c3ccccc3)cc(=O)oc2cc1OCc1ccc(C(=O)O)o1
- EC50 [1]: 8.37 µM (active)
- EC50 [2]: > 150 µM (not active)
- EC50 [3]: 13.8 µM (active)

Compound: CN(C)c1nc(OCCNC(=O)Nc2ccc(Cl)cc2)nc(N(C)C)n1
- EC50 [7]: > 112 µM (not active)
- EC50 [8]: 21.3 µM (active)

Compound: C[C@@H]1CC[C@H]2C(=O)N3[C@@H](CC[C@@H](C)[C@@H]3c3ccc(Br)cc3)C(=O)N2[C@H]1c1ccc(Br)cc1
- AC50 [10]: 3.04 µM (active)

Compound: Cc1nnc(SCC(=O)Nc2ccc(Br)cn2)nc1O
- EC50 [7]: > 112 µM (not active)
- EC50 [8]: > 112 µM (not active)

Compound: CC(Oc1ccccc1Cl)C(=O)Nc1ccc(S(=O)(=O)Nc2nccs2)cc1 (stereo not given)
- IC50 [9]: 5.01 µM (active)

Compound: COC(=O)C1(Cc2ccccc2)C=C2C(=C(C)C(=O)C2C)CN1 (stereo not given)
- AC50 [11]: 10 µM (inconclusive)
- AC50 [12]: 15.8 µM (inconclusive)
- AC50 [13]: 39.8 µM (inconclusive)
- AC50 [14]: 15.8 µM (inconclusive)

Compound: Cc1ccccc1SCC(=O)OCC(=O)N(C)c1c(N)n(Cc2ccccc2)c(=O)[nH]c1=O
- EC50 [7]: > 112 µM (not active)
- EC50 [8]: > 112 µM (not active)

Compound: O=C1/C(=C/c2ccncc2)Oc2cc(OS(=O)(=O)c3ccccc3)ccc21
- AC50 [10]: 3.32 µM (active)

Compound: Cc1ccc(-c2[nH]c3ccccc3c2C(C[N+](=O)[O-])c2ccco2)cc1 (stereo not given)
- EC50 [15]: > 260 µM (inactive)
- EC50 [7]: > 112 µM (not active)
- EC50 [8]: > 112 µM (not active)

Compound: Cc1ccc(Nc2cc(C)nn2-c2nc(C)cc(C)n2)cc1
- EC50 [1]: 6.89 µM (active)
- EC50 [2]: 18.2 µM (active)
- EC50 [3]: > 150 µM (not active)

Compound: CC1CCN(CCNC(=O)C2CCCN(c3ncnc4c3nc3n4CCCCC3)C2)CC1 (stereo not given)
- IC50 [9]: 13.2 µM (active)

Compound: CC(C)N1CCN(Cc2ccc(OC3CCCC3)cc2)CC1CCO (stereo not given)
- AC50 [10]: 3.58 µM (active)

Compound: O=c1c2sc3nc(N4CCOCC4)c4c(c3c2ncn1-c1ccccc1)CCCC4
- EC50 [7]: > 112 µM (not active)
- EC50 [8]: > 112 µM (not active)

Compound: Cc1cccc(NC(=O)c2[nH]cnc2C(=O)NC2CCN(C(=O)OC(C)(C)C)CC2)c1
- AC50 [10]: 5.39 µM (active)

Compound: O=C(NCc1nnc(SCC(=O)N2CCOCC2)o1)c1c(F)cccc1F
- EC50 [1]: > 150 µM (not active)
- EC50 [2]: > 150 µM (not active)
- EC50 [3]: > 150 µM (not active)

Compound: Cc1nc2sccn2c(=O)c1S(=O)(=O)NCC(C)c1ccccc1 (stereo not given)
- EC50 [7]: > 112 µM (not active)
- EC50 [8]: > 112 µM (not active)

Compound: Cc1ccc(C)n1-c1ccc(C(=O)Nc2ccccc2)cc1
- AC50 [6]: > 260 µM (inactive)

Compound: O=C(CSc1ccccc1)Nc1nc2ccccc2[nH]1
- EC50 [7]: > 112 µM (not active)
- EC50 [8]: > 112 µM (not active)

Compound: CCN(CC(=O)NC1CCS(=O)(=O)C1)S(=O)(=O)c1ccccc1 (stereo not given)
- EC50 [7]: > 112 µM (not active)
- EC50 [8]: > 112 µM (not active)

Compound: Nc1c(C(=O)OCc2ccccc2)c2nc3ccccc3nc2n1Cc1cccs1
- EC50 [1]: 10.9 µM (active)
- EC50 [2]: 11.8 µM (active)
- EC50 [3]: 18.5 µM (active)

Compound: Cn1c2ccccc2c(=O)c2c(=O)n(C3CCCCC3)c(-c3cccs3)nc21
- EC50 [1]: 10.6 µM (active)
- EC50 [2]: 39.2 µM (active)
- EC50 [16]: 7.92 µM (active)
- EC50 [17]: 8.9 µM (active)
- EC50 [3]: > 150 µM (not active)

Compound: COc1ccc(NC(=S)N2CCc3ccccc32)cc1OC
- EC50 [7]: > 112 µM (not active)
- EC50 [8]: > 112 µM (not active)

Compound: CCOC(=O)Nc1ccc(Cc2ccncc2)cc1
- AC50 [10]: 25.3 µM (active)

Compound: COc1ccc(NC(=O)c2ccc(COc3ccccc3Br)o2)c(OC)c1
- AC50 [10]: 2.2 µM (active)

Compound: Cc1ccc(NC(=O)C(C)Sc2nnc(C)n2C2CC2)cc1S(=O)(=O)N1CCOCC1 (stereo not given)
- AC50 [6]: > 260 µM (inconclusive)

Compound: CN(C)C=O.O=C(c1cc(-c2ccccc2Cl)nc2ccccc12)N1CCN(c2ccccn2)CC1
- AC50 [6]: 3.9 µM (active)

Compound: CCN(CC)c1nc(Nc2ccc([N+](=O)[O-])cc2)nc(N(CC)CC)n1
- EC50 [1]: 6.64 µM (active)
- EC50 [2]: 15.7 µM (active)
- EC50 [3]: > 150 µM (not active)

Compound: COc1ccc(C(CNC(=O)c2cc(S(=O)(=O)NCc3ccccc3)ccc2C)N2CCOCC2)cc1 (stereo not given)
- IC50 [9]: 11 µM (active)

Compound: COc1ccc(S(=O)(=O)N/N=C(/C)c2cccc(NC(=O)c3ccccc3Cl)c2)cc1
- AC50 [11]: 14.1 µM (inconclusive)
- AC50 [13]: 0.398 µM (inconclusive)
- AC50 [14]: 28.2 µM (inconclusive)
